Reference: patent EP0032432A1, “Prostanoid compounds and their preparation and pharmaceutical formulations” (GLAXO GROUP LIMITED, priority 1980, dated 1981)

How the values were obtained:
[1] = tested on: dogs; test: Toxicity, oral administration to dogs; format: in vivo; settings: given orally to dogs at a dose of 1 mg/kg
Source text: The compounds are in general non-toxic at therapeutically useful doses.

[2] = tested on: human whole blood; test: Inhibition of platelet aggregation (method of Born, collagen instead of ADP as pro-aggregatory agent; pA2 by Arunlakshana and Schild); format: cell-based; settings: tested at a concentration of 2 pg/ml
Source text: As indicated above, our tests have shown that compounds of formula (1) inhibit blood platelet aggregation and/or have bronchodilatatory activity. The test we have used for bronchodilatation is as described by K.M. Lulich, et al in British Journal of Pharmacology 58, 71-79, (1976) except guinea-pig lung is used instead of cat lung. The test for inhibition of platelet aggregation is as described by G.V. Born in Nature 194, 927-929 (1962) except collagen is used instead of ADP as the pro-aggregatory agent.
The following compounds were tested at a concentration of 2 pg/ml for their ability to inhibit the aggregation of human whole blood according to the method of G V Born in Nature 194, 927-929 (1962) except collagen was used instead of ADP as the pro-aggregatory agent. pA2 values were determined using the standard procedures of Arunlakshana and Schild in Br J Pharmac Chemother, 14, 48-58 (1959): […]

[3] = tested on: guinea-pig lung; test: Potential bronchodilatation (method of Lulich et al., guinea-pig lung instead of cat lung; pA2 by Arunlakshana and Schild); format: cell-based; settings: tested at concentrations between 2 x 10^-7 to 2x10^-5 mole/litre; for Kb: Cavia porcellus

SMILES | Kb [2] [nM] | Kb [3] [nM] | also measured
COc1ccc(-c2ccc(COC3CC(=O)C(N4CCOCC4)C3CC=CCCCC(=O)O)cc2)cc1 (racemic) [11a), [1α(Z),2β,5α]-(±)-7-[5-[[4'-Methoxy(1,1'-biphenyl)-4-yl]methoxy]-2-(4-morpholinyl)-3-oxocyclopentyl]-5-heptenoic acid] | 15.8 |  | adverse effects [1]: no adverse effects
COc1ccc(-c2ccc(COC3CC(=O)C(N4CCOCC4)C3CCCCCCC(=O)O)cc2)cc1 (racemic) [18d), (1α,2β,5α)-(±)-5-[[-4'-Methoxy(1,1'-biphenyl)-4-yl]-2-(4-morpholinyl)-3-oxocyclopentaneheptanoic acid] |  |  | pA2 [3]: 8.9
COc1ccc(-c2csc(COC3CC(O)C(N4CCOCC4)C3CC=CCCCC(=O)O)c2)cc1 (racemic) [Example 10b), [1α(Z),2β,3α,5α]-(±)-7-[3-Hydroxy-5-[[4-(4-methoxyphenyl)thien-2-yl]methoxy]-2-(4-morpholinyl)cyclopentyl]-5-heptenoic acid] |  | 1 | 
O=C(O)CCCC=CCC1C(OCc2ccc(Cc3ccccc3)cc2)CC(=O)C1N1CCS(=O)(=O)CC1 (racemic) [11i), [1α(Z),2β,5α]-(±)-7-[3-Oxo-5-[4-(phenylmethyl)-phenylmethoxy]-2-(4-thiomorpholinyl)cyclopentyl]-5-heptenoic acid, S-dioxide] |  | 3.16 | 
O=C(O)CCCC=CCC1C(OCc2ccc(-c3cccs3)cc2)CC(=O)C1N1CCOCC1 (racemic) [5f), [1α(Z),2β,5α]-(±)-7-[2-(4-Morpholinyl)-3-oxo-5-[4-(thien-2-yl)phenylmethoxy]cyclopentyl]-5-heptenoic acid] | 44.7 |  | 
Cc1ccc(-c2ccc(COC3CC(=O)C(N4CCOCC4)C3CCCCCCC(=O)O)cc2)cc1 (racemic) [18a), (1α,2β,5α)-(±)-5-[[4'-Methyl(1,1'-biphenyl)-4-yl]methoxy]-2-(4-morpholinyl)-3-oxocyclopentaneheptanoic acid] |  |  | pA2 [3]: 8.6
Cc1ccc(-c2ccc(COC3CC(=O)C(N4CCCCC4)C3CC=CCCCC(=O)O)cc2)cc1 (racemic) [11g), [1α(Z),2β,5α]-(±)-7-[5-[[4'-Methyl(1,1'-biphenyl)-4-yl]ntethoxy]-3-oxo-2-(1-piperidinyl)cyclopentyl]-5-heptenoic acid] |  | 3.16 | 
COc1ccc(-c2ccc(COC3CC(=O)C(N4CCCCC4)C3CC=CCCCC(=O)O)cc2)cc1 (racemic) [11e), [1α(Z),2β,5α]-(±)-7-[5-[[4'-Methoxy(1,1'biphenyl)-4-yl]methoxy]-3-oxo-2-(1-piperidinyl)cyclopentyl]-5-heptenoic acid] |  | 1.58 | 
O=C(O)CCCC=CCC1C(OCc2ccc(Cc3ccccc3)cc2)CC(=O)C1N1CCOCC1 (racemic) [11b), 1α(Z),2β,5α]-(±)-7-[2-(4-Morpholinyl)-3-oxo-5-[[4-(phenylmethyl)phenyl]methoxy]cyclopentyl]-5-heptenoic acid] | 39.8 |  | 
Cc1ccc(-c2ccc(COC3CC(=O)C(N4CCOCC4)C3CC=CCCCC(=O)O)cc2)cc1 (racemic) [Example 5a), [1α(Z),2β,5α-(±)-7-[5-[[4'-Methyl(1,1'-biphenyl)-4-yl]methoxy]-2-(4-morpholinyl)-3-oxocyclopentyl]-5-heptenoic acid] | 15.8 |  | 
O=C(O)CCCC=CCC1C(OCc2ccc(Cc3ccccc3)cc2)CC(=O)C1N1CCCCC1 (racemic) [Example 11f), [1α(Z),2β,5α]-(±)-7-[3-Oxo-5-[4-(phenylmethyl)phenylmethoxy]-2-(1-piperidinyl)cyclopentyl]-5-heptenoic acid] |  |  | adverse effects [1]: no adverse effects
O=C(O)CCCC=CCC1C(OCc2ccc(-c3ccc(-c4ccccc4)cc3)cc2)CC(=O)C1N1CCOCC1 (racemic) [Example 11c), [1α(Z),2β,5α]-(±)-7-[2-(4-Morpholinyl)-3-oxo-5-[[(1,1';4.1"-terphenyl)-4-yl]methoxy]cyclopentyl]-5-heptenoic acid] |  |  | adverse effects [1]: no adverse effects
